What all share (type): binding
Assay [1] addresses T1, Dat (dopamine N-acetyltransferase; Dat21-230) (Drosophila melanogaster, UniProt Q94521).
T1 construct: gene speck; truncated Dat residues 21-230 of 240; pGEX-6p3, GST tag cut by PreScission protease; E. coli BL21 (DE3)
The assay can be described thus: X-ray crystallography (cocrystallization of Dat, Ac-CoA and PEA); NMR HSQC. Conditions: ternary complex with CoA; product formed in the crystal.

The target in assay [2] is T1, Dat (dopamine N-acetyltransferase; Dat21-230). Nature of the assay: isothermal titration calorimetry. From the text:
isothermal titration calorimetry on Dat (dopamine N-acetyltransferase; Dat21-230)
Background: In ITC the heat of successive injections is recorded.

The target is the same in assay [3]. Nature of the assay: X-ray crystallography, cocrystal. Conditions: substrate pocket.

T1 sequence (Q94521 56-265): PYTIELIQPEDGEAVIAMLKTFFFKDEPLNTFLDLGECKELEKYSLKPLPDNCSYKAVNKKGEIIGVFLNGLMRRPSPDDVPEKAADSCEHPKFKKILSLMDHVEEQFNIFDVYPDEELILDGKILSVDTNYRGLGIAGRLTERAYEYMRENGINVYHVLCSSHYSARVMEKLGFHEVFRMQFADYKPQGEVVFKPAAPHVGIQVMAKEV

Take `CC(=O)NCCc1ccccc1` [Ac-PEA]: the “X-ray crystallography (cocrystallization of Dat, Ac-CoA and PEA); NMR HSQC” value in assay [1] was “crystals of Dat with two products, CoA and Ac-PEA (PDB code: 5GI7)”.

The Kd is the constant that tells how readily two partners part at equilibrium. A high value points to lower affinity. For the molecule `CC(=O)SCCNC(=O)CCNC(=O)[C@H](O)C(C)(C)COP(=O)(O)OP(=O)(O)OC[C@H]1O[C@@H](n2cnc3c(N)ncnc32)[C@H](O)[C@@H]1OP(=O)(O)O` [Ac-CoA], in assay [2], the Kd turned out to be 5.51 ± 1.92 µM.

For `CC(C)(COP(=O)(O)OP(=O)(O)OC[C@H]1O[C@@H](n2cnc3c(N)ncnc32)[C@H](O)[C@@H]1OP(=O)(O)O)[C@@H](O)C(=O)NCCC(=O)NCCS` [CoA], the Kd in assay [2] was 153 ± 26.5 µM.

As for `OCCc1c[nH]c2ccccc12` [tryptophol], in assay [3] (ternary complex with Ac-CoA, dead-end analog of tryptamine, 1.28 Å), the “X-ray crystallography, cocrystal” value is reported as “Dat/Ac-CoA/tryptophol (mimicking the enzyme-substrates complex)”.

Take `CC(=O)NCCc1c[nH]c2ccccc12` [Ac-TRYP]: the “X-ray crystallography, cocrystal” value in assay [3] (ternary complex with CoA, 1.36 Å) is given as “Dat/CoA/Ac-TRYP (representing the enzyme-products complex)”.

The record behind these values is PMC7427786, “An essential role of acetyl coenzyme A in the catalytic cycle of insect arylalkylamine N-acetyltransferase” (Communications Biology, 2020).
